Experimental data reported in patent publication US7906510B2, “Amide derivative and pharmaceutical composition containing the same” (Dainippon Sumito Pharma Co., Ltd., priority 2008, dated 2011).
Read-outs that look alike come from different tables or passages of the source.

Experiments:
5-HT4 receptor = biological target: T1, 5-HT4 receptor (Cavia porcellus, UniProt O70528); assay: Serotonin 4 (5-HT4) receptor binding assay; parameters: species or system guinea pig; details: inhibition of specific binding of 0.1 nM [3H]-GR113808; guinea pig striatum membrane preparations; 37° C., 30 minutes; read-out: IC50
T1 construct: the mixture was suspended to give receptor membrane preparations; from tissue; host or cells: guinea pig (Slc-Hartley) brain striatum membranes
Protocol: 5-HT4 receptor binding assay and preparations of receptor membrane preparations were carried out according to a method of Grossman et al. [see British J. Pharmacol., (1993) 109, 618].
Slc-Hartley guinea pigs (body weight 300 to 400 g) were decapitated to remove brain rapidly, and striatum was isolated. To the obtained tissues were added fifteenfold of Hepes buffer (50 mM, pH7.4, 4° C.), and the mixture was homogenized by Teflon® homogenizer and centrifuged at 48,000×g (4° C.) for 15 minutes. To the resulting precipitate was added Hepes buffer (1 ml) to 30 mg by wet weight of tissues, and the mixture was suspended to give receptor membrane preparations.
0.1 nM [^3H]-GR113808 {chemical name: [1-[2-(methylsulfonylamino)ethyl]-4-piperidinyl]methyl 1-methylindole-3-carboxylate}, receptor membrane preparations, and Hepes buffer (50 mM, pH7.4, 4° C., 1 ml) containing test compounds or 30 μM serotonin were placed in an assay tube, and incubated at 37° C. for 30 minutes. On quenching the reaction, the mixture was rapidly filtered on whatman GF/B filter, which was presoaked in 0.1% polyethyleneimine for 1 hour, by using Brandel cell Harvester, and washed with ice-cooled 50 mM Tris-HCl (pH7.7, 4 ml) three times. To the filter after filtration was added ACS II scintillator, and then a radioactivity was determined by a liquid scintillation counter.
50% inhibition concentrations (IC50) were determined from inhibition rates of test compounds to specific bindings which were obtained by subtracting nonspecific bindings from total binding amounts of [^3H]-GR113808.

Male Slc-ddy mice = assay: Mouse defecation assay; assay type: in vivo; parameters: key: −: No Effect; +: Moderately Improved (p<0.05); ++: Significantly Improved (p<0.01); details: 3 mg/kg orally; stool weight 30, 60 and 120 minutes after administration; Dunnett assay vs control
Protocol: Male Slc-ddy mice (body weight 25 to 30 g) were used and allowed to ingest food and water ad libitum until commencement of experiments.
A group of 25 mice was divided into 5 groups, which 5 mice each per group were respectively transferred to fasting cages to adjust to new environments for about 1 hour. Then, each mouse was orally administered 3 mg/kg suspension of a test compound in 0.5% tragacanth solution to measure each stool weight of each group 30, 60, and 120 minutes after oral administration.
Efficacies were evaluated by Dunnett assay between test compounds and control.

[1] = tested on: Male Slc-Hartley guinea pigs; assay: Electrocardiographic assay for guinea pig; details: dose extending 5% of QTc; i.v. infusion for 15 minutes, anesthetized guinea pigs, ECG lead II
Protocol: (§1) Male Slc-Hartley guinea pigs were anesthetized to determine electrocardiogram (lead II) under artificial respiration. A drug solution was continuously and intravenously infused via cannula indwelled in cervical veins at a flow rate: 0.2 ml/kg/min for 15 minutes.

[2] = tested on: Male Slc-Hartley guinea pigs; details: guinea pig, in vivo, iv
Protocol: as §1

T1 sequence (O70528 whole entry): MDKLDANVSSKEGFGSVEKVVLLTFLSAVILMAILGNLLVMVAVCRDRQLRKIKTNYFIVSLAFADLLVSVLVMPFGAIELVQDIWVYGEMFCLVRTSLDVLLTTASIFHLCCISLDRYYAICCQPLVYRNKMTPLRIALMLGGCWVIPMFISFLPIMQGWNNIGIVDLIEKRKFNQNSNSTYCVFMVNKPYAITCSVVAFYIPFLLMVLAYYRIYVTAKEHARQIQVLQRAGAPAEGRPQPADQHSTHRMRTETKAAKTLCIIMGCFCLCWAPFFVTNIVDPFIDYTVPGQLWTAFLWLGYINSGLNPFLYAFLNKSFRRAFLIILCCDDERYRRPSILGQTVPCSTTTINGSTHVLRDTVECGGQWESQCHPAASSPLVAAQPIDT

For `CCOc1cc(N)c(Cl)cc1C(=O)NC[C@H]1CN(CC2CCN(C(=O)N(C)C)CC2)CCO1` [Example 72], the IC50 (5-HT4 receptor) was 9.04 nM, the Effect (Male Slc-ddy mice) was “++” and the melting point was 157 to 158 °C. For the same compound, the “ED5% (mg/kg,i.v.)” value [1] was over 30 mg/kg.
For `CCOc1cc(N)c(Cl)cc1C(=O)NCC1CN(CC2CCN(C(=O)OC)CC2)CCO1` (centres unmarked) [Example 93], the IC50 (5-HT4 receptor) was 9.36 nM and the melting point was 175 °C.
In the case of `CCOc1cc(N)c(Cl)cc1C(=O)NC[C@H]1CN(CC2CCN(C(=O)CO)CC2)CCO1` [Example 197], the Effect (Male Slc-ddy mice) is reported as “++” and the “ED5% (mg/kg,i.v.)” value [2] is reported as over 30 mg/kg.
`CCOc1cc(N)c(Cl)cc1C(=O)NC[C@H]1CN(CC2CCN(C(=O)N3CCC3)CC2)CCO1` [Example 208, (S)-4-amino-N-[{4-[(1-(1-azetidinecarbonyl)-4-piperidinyl)methyl]-2-morpholinyl}methyl]-5-chloro-2-ethoxybenzamide] gave an IC50 (5-HT4 receptor) of 4.79 nM and a melting point of 166 to 168 °C.
In the case of `CCOc1cc(N)c(Cl)cc1C(=O)NCC1CN(CC2CCN(C#N)CC2)CCO1` (centres unmarked) [Example 211, 4-amino-5-chloro-N-[{4-[(1-cyano-4-piperidinyl)methyl]-2-morpholinyl}-methyl]-2-ethoxybenzamide], the melting point is reported as 197 °C (dec.).
